The values that follow come from patent US11077108B2, “Allosteric corticotropin-releasing factor receptor 1 (CRFR1) antagonists that decrease p-tau and improve cognition” (The Regents of the University of California, priority 2016, dated 2021).

Series [1] in a line: Parallel Artificial Membrane Permeability Assay (PAMPA), kIAM on IAM.PC.DD.2 HPLC column. The format is in vitro ADME. To be noted: kIAM >1 indicative of good brain permeability. The protocol:
Receptor Binding, Inhibition, and Parallel Artificial Membrane Permeability Assay (PAMPA).
Agilent 1260 infinity high-performance liquid chromatography system was used for analysis. The analytical column used was an IAM.PC.DD.2 column (4.6 mm i.d.×10 cm length, particle size […], pore size 300 Å) purchased from Regis Technologies (Morton Grove, Ill.). The mobile phase was a mixture of acetonitrile and water (35:65 v/v). The flow rate of the mobile phase was maintained at 1.0 ml/min at 25° C., and the ultraviolet absorption wavelength was set at 254 nm. Analysis was performed using 5 μL injection of the 2 mM stock solutions of the compounds. Compounds with kIAM values >1 in the PAMPA assay in our hands are indicative of good brain permeability.

Series [2] deals with tau and ptau in SH-SY5Y cells. The experiment in a line: tau and p-tau levels in SH-SY5Y cells after compound treatment (AlphaLISA). To be noted: 1 μM compound, 24 hours, no CRF. The format is cell-based, Human. Here is the method:
Human neuroblastoma SH-SY5Y cells were treated for 24 hours with 1 μM compound, and then tau and ptau levels were determined from cell lysates using AlphaLISA (FIG. 7A). T41, as well as J32. […] Antalarmin (Ant), a known CRF1 antagonist, was used as a control.

The target in series [3] is T1, CRFR1 (Homo sapiens, UniProt P34998).
T1 sequence (P34998 24-415): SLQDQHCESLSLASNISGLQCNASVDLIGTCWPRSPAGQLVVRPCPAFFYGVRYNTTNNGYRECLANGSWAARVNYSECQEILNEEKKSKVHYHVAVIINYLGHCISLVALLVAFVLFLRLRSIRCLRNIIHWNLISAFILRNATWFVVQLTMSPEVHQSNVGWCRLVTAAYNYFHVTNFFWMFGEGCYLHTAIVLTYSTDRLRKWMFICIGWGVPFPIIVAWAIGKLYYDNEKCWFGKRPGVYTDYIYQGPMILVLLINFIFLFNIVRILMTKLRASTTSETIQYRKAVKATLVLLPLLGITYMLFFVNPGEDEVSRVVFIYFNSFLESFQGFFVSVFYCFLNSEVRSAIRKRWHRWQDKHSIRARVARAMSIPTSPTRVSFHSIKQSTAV
The experiment in a line: CRF1 antagonist effect (inhibition of CRFR1 cAMP signaling upon CRF binding). The format is cell-based. Set-up: expressed in transfected cells; host or cells: COS-M6 (transiently transfected).

The target in series [4] is T1, CRFR1. The series is described as follows: Radioligand-receptor binding assay (agonist radioligand), CRF1 Kd. More on the design: expressed in transfected cells; host or cells: HEK293 (permanently transfected), membranes. The following applies: [125I]Tyr-sauvagine agonist radioligand. The protocol:
Radioligand-Receptor Binding Assays (Agonist Radioligand).
Isolation of membranes from permanently transfected HEK293 cells expressing tCRFR1 or hCRFR1 and Scatchard analysis were performed with 50-100 ng protein as described (3) except that 50 pM [^125I]Tyr-sauvagine (NEN) was used as radioligand. [^125I]Tyr-Sauvagine was chosen as radioligand because of its equal high affinity for both CRF-R1 and CRF-R2. Nonspecific binding was always defined as residual [^125I]Tyr-sauvagine binding in the presence of 1 μM unlabeled ligand. The dissociation constant, KD, was calculated by the Ligand program (Munson et al. (1980) Anal. Biochem. 107: 220).

For series [5], the system named is "Goldstein" (GS) prnp-huAPPwt-YFP mouse model. The experiment in a line: Novel Object Recognition (NOR) in corticosterone (CTS)-treated GS mice. The class given is in vivo. To be noted: T41 30 mkd oral 1 hour before CTS 30 mkd SQ, 21 days. The source says: (§1) The purpose of this study was to determine behavioral and biochemical effects of T41 (shown below and in FIG. 2) and its ability to prevent corticosterone (CTS)-induced increases in ptau in the “Goldstein” (GS) prnp-huAPPwt-YFP mouse model. Corticosterone is known to increase CRF, which then should bind the receptor and trigger increases in ptau with chronic CTS injection. Biochemistry included total tau, ptau, and sAPPα from combined entorhinal cortex and hippocampus. Levels of sAPPβ, βCTF, and […] and -42 are believed to be too low to detect in this model.

Series [6] deals with ptau and total tau. The series is described as follows: In vivo ptau, total tau and ptau/tau ratio, combined entorhinal cortex and hippocampus, CTS-treated GS mice. Set-up: species or system mouse. The following applies: T41 30 mkd oral + CTS, 21 days.
The test system of series [7] is tau and ptau in SH-SY5Y cells with CRF challenge. The experiment in a line: CRF challenge assay, tau and p-tau in SH-SY5Y cells. The format is cell-based, Human. To be noted: for ptau/tau ratio: 1 μM compound, three days. Here is the method:
[…] On the next day, cells were treated with 100 nM CRF for 3 days. Next, cells were lysed with RIPA buffer complemented with Halt Cocktail Inhibitors, and freeze/thaw 3 times. […] Significance was not seen without CRF due to low N#, but is highly significant with CRF.

Series [8] is described as follows: In vivo pharmacokinetics, plasma and brain levels. The following applies: adult mice. Here is the method: FIG. 10 illustrates in vivo pharmacokinetics for T41. As shown in the top panel, after oral or subcutaneous (SQ) dosing of adult mice at 10 or 30 mg/kg. and collection of plasma and brain at 1, 2, 4, and 8 hours, the brain/plasma ratio was ˜3:2 for 30 mg/kg oral dosing and ˜2:1 for 30 mg/kg SQ injection. […] After oral dosing at 30 mg/kg, brain levels peaked at 1 hour at 328 ng/g.

The subject of series [9] is human sAPPα. The experiment in a line: In vivo sAPPα, CTS-treated GS mice. Set-up: species or system mouse. The following applies: T41 30 mkd oral + CTS, 21 days.
Description: as §1
The assay used to detect sAPPα recognizes human sAPPα, therefore the signal is expected to be undetectable in NTg mice. There was little or no difference between GS Veh and GS CTS mice (FIG. 13). […] Increases in sAPPα are correlated with improvement in cognition.

Setting [10] is: hippocampus and entorhinal cortex.
Where [11] appears, read: 1 μM compound and 100 nM CRF, 24 hours.

Values joined by “and” are separate entries in the source; they are usually repeats but may differ in a detail not shown here. Identical values can stand only once.

Usually EC50 stands for the concentration needed to bring the measured effect to its halfway point. Read a high EC50 as a less potent agent. Broadly, the Kd is the free concentration of one partner at which half of the binding sites on the other are occupied at equilibrium, for simple one-to-one binding. A high value points to lower affinity. On to `CCC(COC)Nc1nc(C)nc(Oc2c(C)cc(C)cc2C)c1C` (stereo not shown) [Compound T33], for which the “PAMPA KIAM” value in series [1] amounted to 6.34. Moreover, in [2], the p-tau entry was “slightly decreased” and the total tau entry is given as “slightly decreased”. Moreover, in series [3] (values given in μM), the EC50 was > 2 µM. For the same compound, in [4], the Kd was ~30 nM.
With `CCC(COC)Nc1nc(C)nc(Oc2ccc(OC)cc2C)c1C` (stereo not shown) [Compound T36, 6-(4-methoxy-2-methylphenoxy)-N-(1-methoxybutan-2-yl)-2,5-dimethylpyrimidin-4-amine], in series [1], the “PAMPA KIAM” value is listed as 2.31. Besides, the Kd in series [4] is > 100 nM.
Regarding `CCC(COC)Nc1nc(C)nc(Oc2ccc(Cl)cc2C)c1C` (stereo not shown) [Compound T37, 6-(4-chloro-2-methylphenoxy)-N-(1-methoxybutan-2-yl)-2,5-dimethylpyrimidin-4-amine], in series [1], the “PAMPA KIAM” value is on record as 5.79. For the same compound, the Kd in [4] was > 100 nM.
Take `CCC(COC)Oc1nc(C)nc(Nc2ccc(OC)cc2C)c1C` (stereo not shown) [Compound T38, N-(4-methoxy-2-methylphenyl)-6-((1-methoxybutan-2-yl)oxy)-2,5-dimethylpyrimidin-4-amine]: the “PAMPA KIAM” value in series [1] came out at 2.02. Also, the EC50 in series [3] (values given in μM) is > 2 µM. Besides, the Kd in [4] is ~30 nM.
As to `CCC(COC)Oc1nc(C)nc(Nc2ccc(Cl)cc2C)c1C` (stereo not shown) [Compound T39], in [1], the “PAMPA KIAM” value is 6.19. In series [2], the p-tau result is given as “slightly decreased”, the p-tau/tau ratio result is recorded as “significantly decreased” and the total tau result is on record as “slightly decreased”. Besides, the EC50 in series [3] (values given in μM) was > 10 µM. The Kd in series [4] worked out at 75 nM.
As to `CCC(COC)Oc1nc(C)nc(OC(CC)COC)c1C` (stereo not shown) [Compound T40], in series [1], the “PAMPA KIAM” value is given as 4.68. In addition, the dissociation constant (Kd) in series [4] was > 100 nM.
What is called Ki is a measure of affinity in units of concentration, obtained from inhibition or displacement. A low value points to a stronger hold on the target. In general, inhibition refers to the drop in the measured response relative to a control, in per cent. A higher inhibition goes with strong suppression. Regarding `CCC(COC)Oc1nc(C)nc(Nc2c(C)cc(C)cc2C)c1C` (stereo not shown) [Compound T41], the “PAMPA KIAM” value in series [1] was found to be 4.01. In [2], the p-tau result is recorded as “slightly decreased”, the p-tau/tau ratio entry is listed as “significantly decreased” and the total tau entry is given as “slightly decreased”. The “novelty preference (NOR), post-study” value in [5] is reported as “promising trend toward some increased novelty preference”. Further, in series [6] (setting [10]), the ptau result is “no significant difference” and the total tau result is on record as “overall had the highest value”. For the same compound, the ptau/tau ratio entry in [6] (versus CTS alone) is “T41 pre-treatment to prevent that increase”. This compound gave an inhibition constant (Ki) in [3] (CRFR1 cAMP signaling upon CRF binding) of 400 nM. Further, the inhibition at 1 µM in [3] (at 1 μM, upon CRF binding) amounted to 70%. For the same compound, the EC50 in [3] (values in nM) was 0.4 µM. In addition, in series [7] (setting [11]), the p-tau entry is “lowers p-tau with high significance”, the p-tau/tau ratio entry is recorded as “significant lowering” and the tau entry is “does not lower tau”. Moreover, the ptau/tau ratio result in series [7] (with 100 nM CRF) is given as “lowers the ptau/tau ratio”. Further, the ptau/tau ratio result in [7] (without CRF) is “lowers the ptau/tau ratio”. Moreover, the “brain levels, comparison of doses and routes” value in series [8] (10 or 30 mg/kg, oral or SQ) is “higher at 30 than 10 mg/kg and higher with SQ injection than oral delivery”. In addition, in [8] (oral dosing at 30 mg/kg), the peak brain level came out at 328 ng/g and the “time of peak brain level” value is 1 h. Besides, the Kd in series [4] is ~15 nM and 15 nM. Further, the sAPPα entry in series [9] is “trend toward an increase in sAPPα in T41-treated mice that was not statistically significant”.
On to `CCC(COC)Oc1nc(C)nc(Nc2ccc(F)cc2F)c1C` (stereo not shown) [Compound T45], for which the “PAMPA KIAM” value in [1] is 3.32. Also, the Kd in series [4] was > 100 nM.
For `CCC(COC)Oc1nc(C)nc(Nc2ccc(F)cc2C(F)(F)F)c1C` (stereo not shown) [Compound T46] the same measures were 2.90 and > 100 nM.
Regarding `CCC(COC)Oc1nc(C)nc(Nc2c(F)cc(F)cc2F)c1C` (stereo not shown) [Compound T47], in series [1], the “PAMPA KIAM” value is 2.00. Besides, in [4], the dissociation constant Kd is > 100 nM.
Take `CCC(COC)Oc1nc(C)nc(Nc2ccc(F)cc2C)c1C` (stereo not shown) [Compound T48]: the “PAMPA KIAM” value in [1] is 3.27.
For `CCC(COC)Oc1nc(C)nc(Nc2c(C)cc(F)cc2C)c1C` (stereo not shown) [Compound T49], binding in [4] was put at a Kd of 40 nM.
Still for that read-out and setting: then `CCC(COC)Oc1nc(C)nc(Nc2ncc(C)cc2C)c1C` (stereo not shown) [Compound T51], with 1000 nM.
Consider `CCC(COC)Oc1nc(C)nc(Nc2cnn(C)c2C)c1C` (stereo not shown) [Compound T53], for which the “CRF1 (agonist radioligand) Kd/(nM)” value in series [4] was “DEAD”.
As for `CCC(COC)Oc1nc(C)nc(Nc2ccn(C)n2)c1C` (stereo not shown) [Compound T54], in [4], the “CRF1 (agonist radioligand) Kd/(nM)” value is reported as “DEAD”.
